Test results as given in US9474780B2, “GIP and GLP-1 co-agonist compounds” (Eli Lilly and Company, priority 2015, dated 2016).
Where “and” joins values, the source holds several entries; their conditions need not be identical. Equal values may be shown once.

Assays:
human GLP-1R [1] = biological target: T1, human GLP-1R (Homo sapiens, UniProt P43220); type: binding
T1 construct: expressed in transfected cells; host or cells: 293HEK, Hygromycin-selected; crude plasma membranes

human GLP-1R [2] = biological target: T1, human GLP-1R; assay: Functional hGLP-1R cAMP assay in HEK-293 clonal cells; type: cell-based; details: HEK293; percent of maximal response of hGLP-1(7-36)NH2
Protocol: (§3) After an incubation of 60 minutes at room temperature, the resulting increase in intracellular cAMP is quantitatively determined using the CisBio cAMP Dynamic 2 HTRF Assay Kit (Bedford, Mass.). Briefly, cAMP levels within the cell are detected by adding the cAMP-d2 conjugate in cell lysis buffer (20 μl) followed by the antibody anti-cAMP-Eu^3+-Cryptate, also in cell lysis buffer (20 μl). The resulting competitive assay is incubated for at least 60 minutes at room temperature, then detected using a PerkinElmer Envision® instrument with excitation at 320 nm and emission at 665 nm and 620 nm Envision units (emission at 665 nm/620 nm*10,000) are inversely proportional to the amount of cAMP present and are converted to nM cAMP per well using a cAMP standard curve. […] A relative EC50 value and percent top (Emax) is derived by non-linear regression analysis using the percent maximal response versus the concentration of the compound of the present invention, fitted to a four-parameter logistic equation.

rat islets = assay: Rat islet insulin secretion; type: cell-based; details: read-out: Rat islet insulin secretion Mean ED50
Protocol: (§1) To assess action of compounds of the present invention in a system representing physiological GLP-1R and GIP-R expression levels insulin secretion, compounds are tested for effects on insulin secretion from wild-type rodent islets.
(§2) After common bile duct cannulation in male C57B1/6 mice (22-26 g) or male Sprague-Dawley rats (approx. 250 g), the pancreas is distended with Hank's buffer (3 ml for mice or 10 ml for rats, containing 2% BSA and 0.75 mg/ml Clzyme collagenase (VitaCyte). Subsequently, tissues are digested in Hank's buffer at 37° C. for 11-13 minutes (mice) or 14-16 minutes for rat pancreata. Purified islets (Histopaque-1100 gradient [Sigma-Aldrich], […] at 750× gravity) are cultured overnight in RPMI-1640 medium (Invitrogen) containing 10% FBS, 100 U/ml penicillin and 100 μg/ml streptomycin, and preconditioned by starvation in Earle's Balanced Salt Solution (EBSS) supplemented with 0.1% BSA and 2.8 mM glucose. Subsequently, islets are incubated in EBSS (Invitrogen) supplemented with 0.1% BSA, 2.8-11.2 mM glucose and increasing levels of compound (6 batches of 4 islets/condition). GLP-1(7-36)amide (30 nM) is used as a positive control. Insulin is measured over 90 minutes in supernatant using the MSD Insulin Assay (Meso Scale, Gaithersburg, Md.).

mouse islets = assay: Mouse islet insulin secretion; type: cell-based; details: read-out: Mouse islet insulin secretion Mean ED50
Protocol: as §1, §2

[3] = Pharmacokinetics in cynomolgus monkeys; type: in vivo; details: cynomolgus monkey, plasma, single SC 0.2 mg/kg, male monkeys, n = 2
Method in brief: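 Single 0.2 mg/kg dose, intravenous or subcutaneous, in 20 mM citrate buffer pH 7.0; blood sampled from 2 to 312 hours post-dose. Plasma extracted with N-butanol, reconstituted in 30% acetonitrile/0.1% formic acid and quantified by LC/MS on a C5 column with Q-Exactive detection.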

[4] = Rat in vivo insulin secretion following intravenous glucose (IVGTT); details: s.c. 16 hour prior to glucose
Method in brief: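 Male Wistar rats dosed s.c. with vehicle or 0.1–10 nmol/kg 16 h before glucose, then fasted and anesthetized with pentobarbital i.p. (65 mg/kg). Glucose ([…]) given after a time-zero bleed; plasma sampled at 2, 4, 6, 10, 20, 30 min. Glucose measured by analyzer, insulin by MSD immunoassay.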

[5] = Weight loss, body composition and hepatic steatosis in DIO mice; type: in vivo, mouse; details: for Blood Glucose: Day 15
Method in brief: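 C57/BL6 DIO mice, individually housed at 24 °C, 12 h light/dark, food and water ad libitum; daily body weight and food intake, weight change versus pre-dose value of the same animal. Day 15: tail-vein glucose, then liver triglycerides and plasma cholesterol; ANOVA with Dunnett's test, ED50 for weight loss by non-linear fit.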

Human GCGR = Human GCGR (Homo sapiens, UniProt P47871); assay: Functional hGCGR cAMP assay in HEK-293 clonal cells
human GIP-R = biological target: T2, human GIP-R (Homo sapiens, UniProt P48546); assay: Functional hGIP-R cAMP assay in HEK-293 clonal cells; details: HEK293, read-out: Human GIP-R Emax
T2 sequence (P48546 22-466): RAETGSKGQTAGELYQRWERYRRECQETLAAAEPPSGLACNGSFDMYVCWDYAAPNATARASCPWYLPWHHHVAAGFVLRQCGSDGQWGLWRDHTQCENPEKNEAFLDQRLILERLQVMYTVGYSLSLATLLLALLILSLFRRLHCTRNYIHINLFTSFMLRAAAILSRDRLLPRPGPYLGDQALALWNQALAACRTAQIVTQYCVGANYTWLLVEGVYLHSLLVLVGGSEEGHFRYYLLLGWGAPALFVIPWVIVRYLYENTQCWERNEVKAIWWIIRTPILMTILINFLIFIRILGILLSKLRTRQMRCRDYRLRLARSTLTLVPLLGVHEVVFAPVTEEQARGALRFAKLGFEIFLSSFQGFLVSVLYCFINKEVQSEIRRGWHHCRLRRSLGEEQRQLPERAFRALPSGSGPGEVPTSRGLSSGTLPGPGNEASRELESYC
Protocol: as §3

T1 sequence (P43220 24-463): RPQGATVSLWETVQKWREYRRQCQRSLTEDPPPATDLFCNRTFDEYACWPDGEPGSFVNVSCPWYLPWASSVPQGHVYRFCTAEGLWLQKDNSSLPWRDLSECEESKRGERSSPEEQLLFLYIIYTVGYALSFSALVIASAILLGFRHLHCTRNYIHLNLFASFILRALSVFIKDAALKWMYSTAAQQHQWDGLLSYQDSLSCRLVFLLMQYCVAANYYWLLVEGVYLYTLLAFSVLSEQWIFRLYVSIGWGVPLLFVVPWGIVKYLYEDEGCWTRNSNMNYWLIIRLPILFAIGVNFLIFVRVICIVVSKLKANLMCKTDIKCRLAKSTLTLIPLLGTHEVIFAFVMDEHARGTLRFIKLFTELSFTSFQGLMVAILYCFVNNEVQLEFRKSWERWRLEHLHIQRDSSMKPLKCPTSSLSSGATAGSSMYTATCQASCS
Human GCGR, sequence (P47871 26-477): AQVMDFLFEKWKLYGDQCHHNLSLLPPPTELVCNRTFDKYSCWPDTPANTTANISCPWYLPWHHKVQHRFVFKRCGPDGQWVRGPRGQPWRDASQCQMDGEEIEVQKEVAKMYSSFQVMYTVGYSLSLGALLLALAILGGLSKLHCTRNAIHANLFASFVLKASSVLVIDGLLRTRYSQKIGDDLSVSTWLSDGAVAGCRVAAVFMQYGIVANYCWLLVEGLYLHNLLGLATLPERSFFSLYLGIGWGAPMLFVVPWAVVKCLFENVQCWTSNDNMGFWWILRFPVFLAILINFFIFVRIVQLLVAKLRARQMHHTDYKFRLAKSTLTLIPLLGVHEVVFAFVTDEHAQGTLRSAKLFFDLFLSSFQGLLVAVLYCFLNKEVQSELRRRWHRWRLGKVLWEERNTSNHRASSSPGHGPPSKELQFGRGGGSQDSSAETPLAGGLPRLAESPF

CC[C@H](C)[C@H](NC(=O)[C@H](CC(C)C)NC(=O)[C@H](Cc1c[nH]c2ccccc12)NC(=O)[C@H](CCC(N)=O)NC(=O)[C@@H](NC(=O)[C@H](Cc1ccccc1)NC(=O)[C@H](C)NC(=O)[C@H](CCCCNC(=O)COCCOCCNC(=O)COCCOCCNC(=O)CC[C@H](NC(=O)CCCCCCCCCCCCCCCCC(=O)O)C(=O)O)NC(=O)[C@H](CCC(N)=O)NC(=O)[C@H](C)NC(=O)[C@@H](NC(=O)[C@H](CCCCN)NC(=O)[C@H](CC(=O)O)NC(=O)[C@H](CC(C)C)NC(=O)C(C)(C)NC(=O)[C@@H](NC(=O)[C@H](CO)NC(=O)[C@H](Cc1ccc(O)cc1)NC(=O)[C@H](CC(=O)O)NC(=O)[C@H](CO)NC(=O)[C@@H](NC(=O)[C@H](Cc1ccccc1)NC(=O)[C@@H](NC(=O)CNC(=O)[C@H](CCC(=O)O)NC(=O)C(C)(C)NC(=O)[C@@H](N)Cc1ccc(O)cc1)[C@@H](C)O)[C@@H](C)O)[C@@H](C)CC)[C@@H](C)CC)C(C)C)C(=O)N[C@@H](C)C(=O)NCC(=O)NCC(=O)N1CCC[C@H]1C(=O)N[C@@H](CO)C(=O)N[C@@H](CO)C(=O)NCC(=O)N[C@@H](C)C(=O)N1CCC[C@H]1C(=O)N1CCC[C@H]1C(=O)N1CCC[C@H]1C(=O)N[C@@H](CO)C(N)=O [Example 3]
Molar ratio of hGLP-1R/hGIP-R (human GLP-1R [1]; normalized by factor 4.53 from native GIP and GLP-1 binding): 3.53
Absolute ratio of hGLP-1R/hGIP-R (human GLP-1R [1]; ratio of Ki values): 16
Emax (human GLP-1R [2]): 96.2 ± 6.2%
EC50 (rat islets): 34.9 nM
EC50 (mouse islets): 58.9 nM
CL/F [3]: 1.3 mL/h/kg
Cmax [3]: 3000 ng/mL
AUC(0-inf) ([3]; read-out: Mean AUC0-inf): 153 µg·h/mL
half-life ([3]; read-out: Mean T1/2 (converted)): 34 h
Tmax ([3]; read-out: Mean Tmax): 8 h
% max increase of insulin AUC [4]: 314 +/− 38% and 219 +/− 19%
ED50 for insulin, rat IVGTT [4]: 1.00 nmol/kg and 1.42 nmol/kg
% Change from starting body weight ([5]; Table 8, 10 nmol/kg): −13.38 ± 0.88 %
% Change from starting fat mass ([5]; Table 8, 10 nmol/kg): −20.76 ± 2.42 %
% Change from starting body weight ([5]; Table 8, 30 nmol/kg): −18.13 ± 1.44 %
% Change from starting fat mass ([5]; Table 8, 30 nmol/kg): −30.90 ± 2.06 %
% Change from starting body weight ([5]; Table 8, 100 nmol/kg): −25.84 ± 1.93 %
% Change from starting fat mass ([5]; Table 8, 100 nmol/kg): −45.92 ± 2.15 %
Plasma Cholesterol ([5]; Table 11, 10 nmol/kg): 213.2 ± 15.54 mg/dL
Plasma Triglycerides ([5]; Table 11, 10 nmol/kg): 30.38 ± 8.23 mg/dL
Blood Glucose ([5]; Table 11, 10 nmol/kg): 109.5 ± 2.35 mg/dL
Plasma Cholesterol ([5]; Table 11, 30 nmol/kg): 177.4 ± 16.58 mg/dL
Plasma Triglycerides ([5]; Table 11, 30 nmol/kg): 21.32 ± 2.48 mg/dL
Blood Glucose ([5]; Table 11, 30 nmol/kg): 107.6 ± 1.32 mg/dL
Plasma Cholesterol ([5]; Table 11, 100 nmol/kg): 194.00 ± 14.40 mg/dL
Plasma Triglycerides ([5]; Table 11, 100 nmol/kg): 20.55 ± 4.60 mg/dL
Blood Glucose ([5]; Table 11, 100 nmol/kg): 102.00 ± 0.50 mg/dL
EC50 (Human GCGR): > 1000 nM
Emax (human GIP-R): 106 ± 3%
